{"source": "paper PMC12767113", "about": "“EM2, a Natural Product MST1/2 Kinase Activator, Suppresses Non‐Small Cell Lung Cancer via Hippo Pathway Activation” (Advanced Science, 2025)", "key": {"[1]": {"target": "T1, MST1-GFP (Homo sapiens, UniProt Q13043)", "T1 construct": "gene STK4; GFP-tagged MST1 expressed from plasmid in A549 cells, RIPA lysate", "T1 sequence (Q13043 1-487)": "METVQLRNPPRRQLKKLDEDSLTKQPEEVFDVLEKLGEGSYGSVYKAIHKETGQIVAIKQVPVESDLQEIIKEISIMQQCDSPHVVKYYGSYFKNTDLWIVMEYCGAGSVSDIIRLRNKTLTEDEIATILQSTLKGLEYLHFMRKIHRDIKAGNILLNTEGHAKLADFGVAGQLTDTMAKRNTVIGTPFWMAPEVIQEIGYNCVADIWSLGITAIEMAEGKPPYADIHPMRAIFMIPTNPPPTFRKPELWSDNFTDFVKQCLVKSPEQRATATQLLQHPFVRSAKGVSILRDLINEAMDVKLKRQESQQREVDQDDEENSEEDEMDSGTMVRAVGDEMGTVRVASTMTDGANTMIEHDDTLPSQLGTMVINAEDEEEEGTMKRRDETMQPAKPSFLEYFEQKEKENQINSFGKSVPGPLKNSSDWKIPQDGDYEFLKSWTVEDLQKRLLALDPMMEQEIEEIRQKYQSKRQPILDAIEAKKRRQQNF", "test": "microscale thermophoresis", "settings": "A549 cell lysate; GFP fusion as fluorophore; constant, if any, only in figure", "from_the_text": "microscale thermophoresis on MST1-GFP | Microscale thermophoresis confirmed dose‐dependent binding affinity (Figure 1H)"}, "[2]": {"target": "T2, MST1 (Homo sapiens, UniProt Q13043)", "T2 sequence (Q13043 1-487)": "T1 sequence (Q13043 1-487)", "test": "ADP-Glo kinase assay", "type": "biochemical", "design": "gene STK4; isolated MST1 protein (ITC) and \"active MST1\" (ADP-Glo)", "settings": "activator; ATP and MOB1a substrate; 25 °C, 30 min"}, "[3]": {"target": "T2, MST1", "test": "CETSA (immunoblot), H520 and A549 cells", "type": "cell-based", "design": "gene STK4; endogenous protein in A549 and H520 cells, detected by immunoblot (antibody CST #3682)", "settings": "42-56 °C, 3 min; supported by DARTS (50 and 100 µM, Pronase)"}, "[4]": {"target": "T2, MST1", "test": "isothermal titration calorimetry", "type": "binding", "design": "gene STK4; isolated MST1 protein (ITC) and \"active MST1\" (ADP-Glo)", "settings": "25 °C; 50 mM HEPES pH 7.5, 150 mM NaCl, 2 mM DTT"}}, "data": [{"smiles": "C=C(C)C(=O)OC1CC(C)=CC2(OC)C=C(C)C(O2)C2OC(=O)C(=C)C12", "note": "(stereo not shown) [EM2]", "values": [{"measurement": "Kd", "setting": "[1]", "value": "1790 ± 1690", "unit": "nM"}, {"measurement": "kinase activity", "setting": "[2]", "value": "functions through its kinase activity, which significantly increased with EM2 concentration (Figure 1J)"}, {"measurement": "CETSA (immunoblot), H520 and A549 cells", "setting": "[3]", "value": "CETSA demonstrated that EM2 enhanced MST1 thermal stability"}, {"measurement": "Kd", "setting": "[4]", "value": "1970 ± 1020", "unit": "nM"}]}]}
